Source: the NIST ThermoML archive (doi:10.1016/j.jct.2006.12.004)
± gives the expanded uncertainty stated by the source.

Assay: refractive index (Na D-line) (dimensionless)
Conditions: 293.1 K; 101.33 kPa; Liquid; Standard Abbe refractometry

Row | refractive index | SMILES
1 | 1.3882 ± 0.0007 | CCCCCCC [heptane]
2 | 1.5024 ± 0.0007 | c1ccccc1 [benzene]

The remaining lines, values behind:

Row | SMILES | refractive index
3 | Cc1cccc(C)c1 [1,3-dimethylbenzene] | 1.4943 ± 0.0007
4 | Cc1ccccc1 [toluene] | 1.4873 ± 0.0007
5 | O=CN1CCOCC1 [N-formylmorpholine] | 1.484 ± 0.0007
